In publication PMC11672299, “Conjugation of Polycationic Peptides Extends the Efficacy Spectrum of β‐Lactam Antibiotics” (Advanced Science, 2024):
Square brackets hold non-standard residues; d marks the D form. Peptide text beside a SMILES is read from it. * marks the point of attachment. X1 = CC(C)(O/N=C(\C(=O)N[C@@H]1C(=O)N2C(C(=O)[O-])=C(C[n+]3ccccc3)CS[C@H]12)c1csc(N)n1)C(=O)NCCCCCCN1C(=O)CC(*)C1=O; X2 = C[C@H]1[C@H](NC(=O)/C(=N\OC(C)(C)C(=O)NCCCCCCN2C(=O)CC(*)C2=O)c2csc(N)n2)C(=O)N1S(=O)(=O)O

Tested on: B. subtilis DSM 10
Assay: microbe, parasite or virus in culture
Format: cell-based
Method: The minimum inhibitory concentration (MIC) of the β‐lactam–peptide conjugates was determined by broth microdilution as previously described.^[ [17] ^] Briefly, in cation‐adjusted MHB II medium, a twofold serial dilution of the compounds was prepared in 96‐well round‐bottom polystyrene or polypropylene microtiter plates with each well containing 50 µL. The plates were inoculated with 50 µL bacterial suspension and the final inoculum, in a total volume of 100 µL, contained 5 × 10^5 CFU mL^−1. The microplates were incubated for 20 h at 37 ± 1 °C. The lowest concentration preventing visible bacterial growth was considered the MIC value. For susceptibility testing of combinations of β‐lactamase‐inhibitors with either a β‐lactam antibiotic or a β‐lactam–peptide conjugate, fixed concentrations of the inhibitors according to the EUCAST (European Committee on Antimicrobial Susceptibility Testing) guidelines (clavulanic acid = 2 mg L^−1, avibactam = 4 mg L^−1) were used.

| SMILES | MIC (DSM 10, 20 h) [µg/mL] | MIC (B. subtilis DSM 10, median (n = 3)) [µg/mL] |
| --- | --- | --- |
| CC1(C)S[C@@H]2[C@H](NC(=O)[C@H](NC(=O)C3CCC(CN4C(=O)CC(SC[C@H](NC(=O)[C@H](CCCNC(=N)N)NC(=O)[C@H](CCCNC(=N)N)NC(=O)[C@H](CCCNC(=N)N)NC(=O)[C@H](CCCNC(=N)N)NC(=O)[C@H](CCCNC(=N)N)NC(=O)[C@@H](N)CCCNC(=N)N)C(N)=O)C4=O)CC3)c3ccc(O)cc3)C(=O)N2[C@H]1C(=O)O (some centres unmarked) [AMO-R6] | 0.06 |  |
| C[C@H]1[C@H](NC(=O)/C(=N\OC(C)(C)C(=O)NCCCCCCN2C(=O)CC(SC[C@H](NC(=O)[C@H](CCCNC(=N)N)NC(=O)CNC(=O)[C@H](CCCNC(=N)N)NC(=O)CNC(=O)[C@H](CCCNC(=N)N)NC(=O)CN)C(N)=O)C2=O)c2csc(N)n2)C(=O)N1S(=O)(=O)O (some centres unmarked) [AZT-(GR)3] (H-GRGRGRC(X2)-NH2; N-terminus assumed) | 1 |  |
| C[C@H]1[C@H](NC(=O)/C(=N\OC(C)(C)C(=O)NCCCCCCN2C(=O)CC(SC[C@H](NC(=O)[C@H](CCCNC(=N)N)NC(=O)[C@H](CCCCN)NC(=O)[C@H](CCCNC(=N)N)NC(=O)[C@H](CCCCN)NC(=O)[C@H](CCCNC(=N)N)NC(=O)[C@@H](N)CCCCN)C(N)=O)C2=O)c2csc(N)n2)C(=O)N1S(=O)(=O)O (some centres unmarked) [AZT-(KR)3] (H-KRKRKRC(X2)-NH2; N-terminus assumed) | 0.06 |  |
| C[C@H]1[C@H](NC(=O)/C(=N\OC(C)(C)C(=O)NCCCCCCN2C(=O)CC(SC[C@H](NC(=O)[C@H](CCC(=O)O)NC(=O)[C@H](CCC(=O)O)NC(=O)[C@H](CCC(=O)O)NC(=O)[C@H](CCC(=O)O)NC(=O)[C@H](CCC(=O)O)NC(=O)[C@@H](N)CCC(=O)O)C(N)=O)C2=O)c2csc(N)n2)C(=O)N1S(=O)(=O)O (some centres unmarked) [AZT-E6] | > 64 |  |
| C[C@H]1[C@H](NC(=O)/C(=N\OC(C)(C)C(=O)NCCCCCCN2C(=O)CC(SC[C@H](NC(=O)CNC(=O)CNC(=O)CNC(=O)CNC(=O)CNC(=O)CN)C(N)=O)C2=O)c2csc(N)n2)C(=O)N1S(=O)(=O)O (some centres unmarked) [AZT-G6] (H-GGGGGGC(X2)-NH2; N-terminus assumed) | 64 |  |
| C[C@H]1[C@H](NC(=O)/C(=N\OC(C)(C)C(=O)NCCCCCCN2C(=O)CC(SC[C@H](NC(=O)[C@@H](N)CCCCN)C(N)=O)C2=O)c2csc(N)n2)C(=O)N1S(=O)(=O)O (some centres unmarked) [AZT-K1] | 16 |  |
| C[C@H]1[C@H](NC(=O)/C(=N\OC(C)(C)C(=O)NCCCCCCN2C(=O)CC(SC[C@H](NC(=O)[C@H](CCCCN)NC(=O)[C@H](CCCCN)NC(=O)[C@@H](N)CCCCN)C(N)=O)C2=O)c2csc(N)n2)C(=O)N1S(=O)(=O)O (some centres unmarked) [AZT-K3] | 8 |  |
| C[C@H]1[C@H](NC(=O)/C(=N\OC(C)(C)C(=O)NCCCCCCN2C(=O)CC(SC[C@H](NC(=O)[C@H](CCCCN)NC(=O)[C@H](CCCCN)NC(=O)[C@H](CCCCN)NC(=O)[C@H](CCCCN)NC(=O)[C@H](CCCCN)NC(=O)[C@@H](N)CCCCN)C(N)=O)C2=O)c2csc(N)n2)C(=O)N1S(=O)(=O)O (some centres unmarked) [AZT-K6] (H-KKKKKKC(X2)-NH2; N-terminus assumed) | 0.25 |  |
| C[C@H]1[C@H](NC(=O)/C(=N\OC(C)(C)C(=O)NCCCCCCN2C(=O)CC(SC[C@H](NC(=O)[C@H](CCCCN)NC(=O)[C@H](CCCCN)NC(=O)[C@H](CCCCN)NC(=O)[C@H](CCCCN)NC(=O)[C@H](CCCCN)NC(=O)[C@H](CCCCN)NC(=O)[C@H](CCCCN)NC(=O)[C@H](CCCCN)NC(=O)[C@@H](N)CCCCN)C(N)=O)C2=O)c2csc(N)n2)C(=O)N1S(=O)(=O)O (some centres unmarked) [AZT-K9] (H-KKKKKKKKKC(X2)-NH2; N-terminus assumed) | 0.1 |  |
| C[C@H]1[C@H](NC(=O)/C(=N\OC(C)(C)C(=O)NCCCCCCN2C(=O)CC(SC[C@H](NC(=O)[C@H](CCCCN)NC(=O)[C@H](CCCCN)NC(=O)[C@H](CCCCN)NC(=O)[C@H](CCCCN)NC(=O)[C@H](CCCCN)NC(=O)[C@H](CCCCN)NC(=O)[C@H](CCCCN)NC(=O)[C@H](CCCCN)NC(=O)[C@H](CCCCN)NC(=O)[C@H](CCCCN)NC(=O)[C@H](CCCCN)NC(=O)[C@@H](N)CCCCN)C(N)=O)C2=O)c2csc(N)n2)C(=O)N1S(=O)(=O)O (some centres unmarked) [AZT-K12] (H-KKKKKKKKKKKKC(X2)-NH2; N-terminus assumed) | 0.06 |  |
| C[C@H]1[C@H](NC(=O)/C(=N\OC(C)(C)C(=O)NCCCCCCN2C(=O)CC(SC[C@H](NC(=O)[C@@H](N)CCCNC(=N)N)C(N)=O)C2=O)c2csc(N)n2)C(=O)N1S(=O)(=O)O (some centres unmarked) [AZT-R1] | 16 |  |
| C[C@H]1[C@H](NC(=O)/C(=N\OC(C)(C)C(=O)NCCCCCCN2C(=O)CC(SC[C@H](NC(=O)[C@H](CCCCN)NC(=O)[C@H](CCCCN)NC(=O)[C@H](CCCCN)NC(=O)[C@H](CCCNC(=N)N)NC(=O)[C@H](CCCNC(=N)N)NC(=O)[C@@H](N)CCCNC(=N)N)C(N)=O)C2=O)c2csc(N)n2)C(=O)N1S(=O)(=O)O (some centres unmarked) [AZT-R3K3] (H-RRRKKKC(X2)-NH2; N-terminus assumed) | 0.06 |  |
| C[C@H]1[C@H](NC(=O)/C(=N\OC(C)(C)C(=O)NCCCCCCN2C(=O)CC(SC[C@H](NC(=O)[C@H](CCCNC(=N)N)NC(=O)[C@H](CCCNC(=N)N)NC(=O)[C@@H](N)CCCNC(=N)N)C(N)=O)C2=O)c2csc(N)n2)C(=O)N1S(=O)(=O)O (some centres unmarked) [AZT-R3] | 1 |  |
| C[C@H]1[C@H](NC(=O)/C(=N\OC(C)(C)C(=O)NCCCCCCN2C(=O)CC(SC[C@H](NC(=O)[C@H](CCCNC(=N)N)NC(=O)[C@H](CCCNC(=N)N)NC(=O)[C@H](CCCNC(=N)N)NC(=O)[C@H](CCCNC(=N)N)NC(=O)[C@H](CCCNC(=N)N)NC(=O)[C@H](CCCNC(=N)N)NC(=O)[C@H](CCCNC(=N)N)NC(=O)[C@H](CCCNC(=N)N)NC(=O)[C@@H](N)CCCNC(=N)N)C(N)=O)C2=O)c2csc(N)n2)C(=O)N1S(=O)(=O)O (some centres unmarked) [AZT-R9] | 0.5 |  |
| C[C@H]1[C@H](NC(=O)/C(=N\OC(C)(C)C(=O)NCCCCCCN2C(=O)CC(SC[C@H](NC(=O)[C@H](CCCNC(=N)N)NC(=O)[C@H](CCCNC(=N)N)NC(=O)[C@H](CCCNC(=N)N)NC(=O)[C@H](CCCNC(=N)N)NC(=O)[C@H](CCCNC(=N)N)NC(=O)[C@H](CCCNC(=N)N)NC(=O)[C@H](CCCNC(=N)N)NC(=O)[C@H](CCCNC(=N)N)NC(=O)[C@H](CCCNC(=N)N)NC(=O)[C@H](CCCNC(=N)N)NC(=O)[C@H](CCCNC(=N)N)NC(=O)[C@@H](N)CCCNC(=N)N)C(N)=O)C2=O)c2csc(N)n2)C(=O)N1S(=O)(=O)O (some centres unmarked) [AZT-R12] | 1 |  |
| C[C@H]1[C@H](NC(=O)/C(=N\OC(C)(C)C(=O)NCCCCCCN2C(=O)CC(SC[C@H](NC(=O)[C@H](CCCNC(=N)N)NC(=O)[C@H](CCCNC(=N)N)NC(=O)[C@H](CCCNC(=N)N)NC(=O)[C@H](CCCNC(=N)N)NC(=O)[C@H](CCCNC(=N)N)NC(=O)[C@H](CCCNC(=N)N)NC(=O)[C@H](N)Cc3ccc(O)cc3)C(N)=O)C2=O)c2csc(N)n2)C(=O)N1S(=O)(=O)O (some centres unmarked) [AZT-yR6] (H-[dY]RRRRRRC(X2)-NH2; N-terminus assumed) |  | 1 |
| CC(C)(O/N=C(\C(=O)N[C@@H]1C(=O)N2C(C(=O)[O-])=C(C[n+]3ccccc3)CS[C@H]12)c1csc(N)n1)C(=O)NCCCCCCN1C(=O)CC(SC[C@H](NC(=O)[C@H](CCCNC(=N)N)NC(=O)CNC(=O)[C@H](CCCNC(=N)N)NC(=O)CNC(=O)[C@H](CCCNC(=N)N)NC(=O)CN)C(N)=O)C1=O (some centres unmarked) [CTZ-(GR)3] (H-GRGRGRC(X1)-NH2; N-terminus assumed) | 0.06 |  |
| CC(C)(O/N=C(\C(=O)N[C@@H]1C(=O)N2C(C(=O)[O-])=C(C[n+]3ccccc3)CS[C@H]12)c1csc(N)n1)C(=O)NCCCCCCN1C(=O)CC(SC[C@H](NC(=O)[C@H](CCCNC(=N)N)NC(=O)[C@H](CCCCN)NC(=O)[C@H](CCCNC(=N)N)NC(=O)[C@H](CCCCN)NC(=O)[C@H](CCCNC(=N)N)NC(=O)[C@@H](N)CCCCN)C(N)=O)C1=O (some centres unmarked) [CTZ-(KR)3] (H-KRKRKRC(X1)-NH2; N-terminus assumed) | 0.008 |  |
| CC(C)(O/N=C(\C(=O)N[C@@H]1C(=O)N2C(C(=O)[O-])=C(C[n+]3ccccc3)CS[C@H]12)c1csc(N)n1)C(=O)NCCCCCCN1C(=O)CC(SC[C@H](NC(=O)[C@H](CCC(=O)O)NC(=O)[C@H](CCC(=O)O)NC(=O)[C@H](CCC(=O)O)NC(=O)[C@H](CCC(=O)O)NC(=O)[C@H](CCC(=O)O)NC(=O)[C@@H](N)CCC(=O)O)C(N)=O)C1=O (some centres unmarked) [CTZ-E6] | > 64 |  |
| CC(C)(O/N=C(\C(=O)N[C@@H]1C(=O)N2C(C(=O)[O-])=C(C[n+]3ccccc3)CS[C@H]12)c1csc(N)n1)C(=O)NCCCCCCN1C(=O)CC(SC[C@H](NC(=O)CNC(=O)CNC(=O)CNC(=O)CNC(=O)CNC(=O)CN)C(N)=O)C1=O (some centres unmarked) [CTZ-G6] (H-GGGGGGC(X1)-NH2; N-terminus assumed) | 8 |  |
| CC(C)(O/N=C(\C(=O)N[C@@H]1C(=O)N2C(C(=O)[O-])=C(C[n+]3ccccc3)CS[C@H]12)c1csc(N)n1)C(=O)NCCCCCCN1C(=O)CC(SC[C@H](NC(=O)[C@@H](N)CCCCN)C(N)=O)C1=O (some centres unmarked) [CTZ-K1] | 1 |  |
| CC(C)(O/N=C(\C(=O)N[C@@H]1C(=O)N2C(C(=O)[O-])=C(C[n+]3ccccc3)CS[C@H]12)c1csc(N)n1)C(=O)NCCCCCCN1C(=O)CC(SC[C@H](NC(=O)[C@H](CCCCN)NC(=O)[C@H](CCCCN)NC(=O)[C@H](CCCCN)NC(=O)[C@H](CCCCN)NC(=O)[C@H](CCCCN)NC(=O)[C@H](CCCCN)NC(=O)[C@H](CCCCN)NC(=O)[C@H](CCCCN)NC(=O)[C@H](CCCCN)NC(=O)[C@H](CCCCN)NC(=O)[C@H](CCCCN)NC(=O)[C@@H](N)CCCCN)C(N)=O)C1=O (some centres unmarked) [CTZ-K12] (H-KKKKKKKKKKKKC(X1)-NH2) | 0.02 |  |
| CC(C)(O/N=C(\C(=O)N[C@@H]1C(=O)N2C(C(=O)[O-])=C(C[n+]3ccccc3)CS[C@H]12)c1csc(N)n1)C(=O)NCCCCCCN1C(=O)CC(SC[C@H](NC(=O)[C@@H](N)CCCNC(=N)N)C(N)=O)C1=O (some centres unmarked) [CTZ-R1] | 1 |  |
